Key:
ECHCG [1] = experiment: Pre-emergence action against ECHCG; type: in vivo, Echinochloa crus-galli; conditions: pre-emergence, dosage 320 g/ha, scored visually after 3 weeks vs untreated controls; for pest or weed control at 320 g/ha: Echinochloa crus-galli, 504 h, read-out: Pre-emergence action against ECHCG (herbicidal activity)
Excerpt: (§1) Seeds of monocotyledonous and dicotyledonous weed plants and crop plants are laid out in sandy loam soil in wood-fiber pots and covered with soil. The compounds of the invention, formulated in the form of wettable powders (WP) or as emulsion concentrates (EC), are then applied to the surface of the covering soil in the form of an aqueous suspension or emulsion at a water application rate equating to […], with addition of 0.2% wetting agent. After the treatment, the pots are placed in a greenhouse and kept under good growth conditions for the trial plants. The damage to the test plants is scored visually after a test period of 3 weeks by comparison with untreated controls (herbicidal activity in percent (%): 100% activity=the plants have died, 0% activity=like control plants).

ABUTH [2] = experiment: Pre-emergence action against ABUTH; type: in vivo, Abutilon theophrasti; conditions: pre-emergence, dosage 320 g/ha, scored visually after 3 weeks vs untreated controls; for pest or weed control at 320 g/ha: Abutilon theophrasti, 504 h, read-out: Pre-emergence action against ABUTH (herbicidal activity)
Excerpt: as §1

AMARE [3] = experiment: Pre-emergence action against AMARE; type: in vivo, Amaranthus retroflexus; conditions: pre-emergence, dosage 320 g/ha, scored visually after 3 weeks vs untreated controls; for pest or weed control at 320 g/ha: Amaranthus retroflexus, 504 h, read-out: Pre-emergence action against AMARE (herbicidal activity)
Excerpt: as §1

MATIN [4] = experiment: Pre-emergence action against MATIN; type: in vivo, Matricaria inodora; conditions: Dosage 320 g/ha, pre-emergence; for pest or weed control at 320 g/ha: Tripleurospermum inodorum, 504 h
Excerpt: as §1

STEME [5] = experiment: Pre-emergence action against STEME; type: in vivo, Stellaria media; conditions: Dosage 320 g/ha, pre-emergence; for pest or weed control at 320 g/ha: Stellaria media, 504 h
Excerpt: as §1

VIOTR [6] = experiment: Pre-emergence action against VIOTR; type: in vivo, Viola tricolor; conditions: Dosage 320 g/ha, pre-emergence; for pest or weed control at 320 g/ha: Viola tricolor, 504 h
Excerpt: as §1

VERPE [7] = experiment: Pre-emergence action against VERPE; type: in vivo, Veronica persica; conditions: Dosage 320 g/ha, pre-emergence; for pest or weed control at 320 g/ha: Veronica persica, 504 h
Excerpt: as §1

CYPES [8] = experiment: Post-emergence action against CYPES; type: in vivo, Cyperus esculentus; conditions: post-emergence, dosage 80 g/ha, visual assessment about 3 weeks after treatment vs untreated controls; for pest or weed control at 80 g/ha: Cyperus esculentus, 504 h, read-out: Post-emergence action against CYPES (herbicidal action in percent)
Procedure: (§2) Seeds of monocotyledonous and dicotyledonous weed and crop plants are laid out in sandy loam soil in wood-fiber pots, covered with soil and cultivated in a greenhouse under good growth conditions. 2 to 3 weeks after sowing, the test plants are treated at the one-leaf stage. The compounds of the invention, formulated in the form of wettable powders (WP) or as emulsion concentrates (EC), are then sprayed onto the green parts of the plants in the form of an aqueous suspension or emulsion at a water application rate equating to […], with addition of 0.2% wetting agent. After the test plants have been left to stand in the greenhouse under optimal growth conditions for about 3 weeks, the action of the preparations is assessed visually in comparison to untreated controls (herbicidal action in percent (%): 100% activity=the plants have died, 0% activity=like control plants). […] At the same time, inventive compounds leave Gramineae crops such as barley, wheat, rye, millet/Sorghum, corn or rice virtually undamaged when applied post-emergence, even at high active ingredient dosages. In addition, some substances are also harmless to dicotyledonous crops such as soya, cotton, oilseed rape, sugar beet or potatoes. Some of the compounds according to the invention have high selectivity and are therefore suitable for controlling unwanted vegetation in agricultural crops by the post-emergence method. The data of Tables B18 to B34 below illustrate, in an exemplary manner, the […] herbicidal action of the compounds according to the invention, the herbicidal activity being stated in percent.

ECHCG [9] = experiment: Post-emergence action against ECHCG; type: in vivo, Echinochloa crus-galli; conditions: post-emergence, dosage 80 g/ha, visual assessment about 3 weeks after treatment vs untreated controls; for pest or weed control at 80 g/ha: Echinochloa crus-galli, 504 h, read-out: Post-emergence action against ECHCG (herbicidal action in percent)
Procedure: as §2

ABUTH [10] = experiment: Post-emergence action against ABUTH; type: in vivo, Abutilon theophrasti; conditions: post-emergence, dosage 80 g/ha, visual assessment about 3 weeks after treatment vs untreated controls; for pest or weed control at 80 g/ha: Abutilon theophrasti, 504 h, read-out: Post-emergence action against ABUTH (herbicidal action in percent)
Procedure: as §2

AMARE [11] = experiment: Post-emergence action against AMARE; type: in vivo, Amaranthus retroflexus; conditions: post-emergence, dosage 80 g/ha, visual assessment about 3 weeks after treatment vs untreated controls; for pest or weed control at 80 g/ha: Amaranthus retroflexus, 504 h, read-out: Post-emergence action against AMARE (herbicidal action in percent)
Procedure: as §2

MATIN [12] = experiment: Post-emergence action against MATIN; type: in vivo, Matricaria inodora; conditions: post-emergence, dosage 80 g/ha, visual assessment about 3 weeks after treatment vs untreated controls; for pest or weed control at 80 g/ha: Tripleurospermum inodorum, 504 h, read-out: Post-emergence action against MATIN (herbicidal action in percent)
Procedure: as §2

PHBPU [13] = experiment: Post-emergence action against PHBPU; type: in vivo, Pharbitis purpurea; conditions: post-emergence, dosage 80 g/ha; for pest or weed control at 80 g/ha: Ipomoea purpurea, 504 h
Procedure: as §2

STEME [14] = experiment: Post-emergence action against STEME; type: in vivo, Stellaria media; conditions: post-emergence, dosage 80 g/ha; for pest or weed control at 80 g/ha: Stellaria media, 504 h
Procedure: as §2

VIOTR [15] = experiment: Post-emergence action against VIOTR; type: in vivo, Viola tricolor; conditions: post-emergence, dosage 80 g/ha; for pest or weed control at 80 g/ha: Viola tricolor, 504 h
Procedure: as §2

VERPE [16] = experiment: Post-emergence action against VERPE; type: in vivo, Veronica persica; conditions: dosage 80 g/ha; for pest or weed control at 80 g/ha: Veronica persica, 504 h
Procedure: as §2

ALOMY = experiment: Pre-emergence action against ALOMY; type: in vivo, Alopecurus myosuroides; conditions: dosage 320 g/ha, pre-emergence, scored visually after 3 weeks vs untreated controls, 100% = plants have died, 0% = like control plants
Excerpt: as §1

CYPES [17] = experiment: Pre-emergence action against CYPES; type: in vivo, Cyperus esculentus; conditions: pre-emergence, dosage 320 g/ha, scored visually after 3 weeks vs untreated controls
Excerpt: as §1

SETVI [18] = experiment: Pre-emergence action against SETVI; type: in vivo, Setaria viridis; conditions: pre-emergence, dosage 320 g/ha, scored visually after 3 weeks vs untreated controls; for pest or weed control at 320 g/ha: Setaria viridis, 504 h, read-out: SETVI (Table B8, pre-emergence herbicidal activity)
Excerpt: as §1

SETVI [19] = experiment: Post-emergence action against SETVI; type: in vivo, Setaria viridis; conditions: post-emergence, dosage 80 g/ha, visual assessment about 3 weeks after treatment vs untreated controls; for pest or weed control at 80 g/ha: Setaria viridis, 504 h, read-out: Post-emergence action against SETVI (herbicidal action in percent)
Procedure: as §2

PHBPU [20] = experiment: Pre-emergence action against PHBPU; type: in vivo, Pharbitis purpurea; conditions: Dosage 320 g/ha, pre-emergence
Excerpt: as §1

SMILES | Pre-emergence action against ECHCG (herbicidal activity) (ECHCG [1]) [%] | Pre-emergence action against ABUTH (herbicidal activity) (ABUTH [2]) [%] | Pre-emergence action against AMARE (herbicidal activity) (AMARE [3]) [%] | Pre-emergence action against MATIN (MATIN [4]) [%] | pest or weed control at 320 g/ha (ECHCG [1]) [%] | pest or weed control at 320 g/ha (ABUTH [2]) [%] | pest or weed control at 320 g/ha (AMARE [3]) [%] | pest or weed control at 320 g/ha (MATIN [4]) [%] | pest or weed control at 320 g/ha (STEME [5]) [%] | pest or weed control at 320 g/ha (VERPE [7]) [%] | pest or weed control at 80 g/ha (CYPES [8]) [%] | pest or weed control at 80 g/ha (ECHCG [9]) [%] | pest or weed control at 80 g/ha (SETVI [19]) [%] | pest or weed control at 80 g/ha (ABUTH [10]) [%] | pest or weed control at 80 g/ha (AMARE [11]) [%] | pest or weed control at 80 g/ha (MATIN [12]) [%] | pest or weed control at 80 g/ha (PHBPU [13]) [%] | pest or weed control at 80 g/ha (STEME [14]) [%] | pest or weed control at 80 g/ha (VIOTR [15]) [%] | pest or weed control at 80 g/ha (VERPE [16]) [%] | further results
CCCn1nnnc1NC(=O)c1ccc(C)c(C(C)=O)c1Cl [3-134] | 100 | 100 | 90 | 90 |  |  |  |  |  |  |  |  |  |  |  |  |  |  |  |  | Pre-emergence action against STEME (STEME [5]): 90%; Pre-emergence action against VIOTR (VIOTR [6]): 100%; Pre-emergence action against VERPE (VERPE [7]): 80%; Post-emergence action against CYPES (herbicidal action in percent) (CYPES [8]): 80%; Post-emergence action against ECHCG (herbicidal action in percent) (ECHCG [9]): 90%; Post-emergence action against ABUTH (herbicidal action in percent) (ABUTH [10]): 80%; Post-emergence action against AMARE (herbicidal action in percent) (AMARE [11]): 90%; Post-emergence action against MATIN (herbicidal action in percent) (MATIN [12]): 90%; Post-emergence action against PHBPU (PHBPU [13]): 90; Post-emergence action against STEME (STEME [14]): 100; Post-emergence action against VIOTR (VIOTR [15]): 90; Post-emergence action against VERPE (VERPE [16]): 90
CC(C)C(=O)c1c(Cl)ccc(C(=O)Nc2nnnn2C)c1Cl [1-280] |  |  |  |  | 100 | 90 | 100 | 100 | 90 | 90 | 90 | 90 | 80 | 80 | 90 | 90 | 80 | 100 | 90 | 90 | pest or weed control at 320 g/ha (ALOMY; Alopecurus myosuroides, 504 h, read-out: Pre-emergence action against ALOMY (herbicidal activity in percent)): 90%; pest or weed control at 320 g/ha (CYPES [17]; Cyperus esculentus, 504 h, read-out: Pre-emergence action against CYPES (herbicidal activity)): 100%; pest or weed control at 320 g/ha (SETVI [18]): 90%; pest or weed control at 320 g/ha (VIOTR [6]): 100%
Cc1ccc(C(=O)Nc2nnnn2C)c(Cl)c1C(=O)C1CC1 [1-136] |  |  |  |  |  |  | 80 | 100 | 100 | 80 | 80 |  |  |  | 90 | 90 | 90 | 100 | 90 | 90 | 
CCCn1nnnc1NC(=O)c1ccc(C(F)(F)F)c(C(C)=O)c1C [3-14] | 100 | 100 | 100 | 100 |  |  |  |  |  |  |  |  |  |  |  |  |  |  |  |  | Pre-emergence action against ALOMY (herbicidal activity in percent) (ALOMY): 90%; Pre-emergence action against CYPES (herbicidal activity) (CYPES [17]): 80%; SETVI (Table B8, pre-emergence herbicidal activity) (SETVI [18]): 100%; Pre-emergence action against PHBPU (PHBPU [20]): 90%; Pre-emergence action against STEME (STEME [5]): 100%; Pre-emergence action against VIOTR (VIOTR [6]): 100%; Pre-emergence action against VERPE (VERPE [7]): 100%; Post-emergence action against CYPES (herbicidal action in percent) (CYPES [8]): 90%; Post-emergence action against ECHCG (herbicidal action in percent) (ECHCG [9]): 100%; Post-emergence action against SETVI (herbicidal action in percent) (SETVI [19]): 100%; Post-emergence action against ABUTH (herbicidal action in percent) (ABUTH [10]): 90%; Post-emergence action against AMARE (herbicidal action in percent) (AMARE [11]): 100%; Post-emergence action against MATIN (herbicidal action in percent) (MATIN [12]): 100%; Post-emergence action against PHBPU (PHBPU [13]): 90; Post-emergence action against STEME (STEME [14]): 100; Post-emergence action against VIOTR (VIOTR [15]): 100; Post-emergence action against VERPE (VERPE [16]): 80
CC(=O)c1c(C)ccc(C(=O)Nc2nnnn2C)c1Cl [1-134] |  |  |  |  | 90 | 90 | 100 | 100 | 90 | 90 | 90 | 90 | 80 | 80 | 90 | 100 | 90 | 100 | 100 | 100 | 
Cn1nnnc1NC(=O)c1ccc(C(F)(F)F)c(C(=O)C(F)(F)F)c1Cl [1-162] |  |  |  |  | 100 | 100 | 90 | 80 | 100 | 80 | 80 | 90 | 80 | 100 | 100 |  | 100 | 100 | 100 |  | pest or weed control at 320 g/ha (SETVI [18]): 100%; pest or weed control at 320 g/ha (VIOTR [6]): 100%

From US11051515B2, “3-acyl-benzamides and their use as herbicides” (Bayer Aktiengesellschaft, priority 2017, dated 2021)
